Laboratory results: patent US12624018B1, “Inhibitors of RIPK2 and medical uses thereof” (Odyssey Therapeutics, Inc., priority 2022, dated 2026)

Legend:
RIPK2 enzyme = molecular target: T1, RIPK2 enzyme (Homo sapiens, UniProt O43353); experiment: RIPK2 inhibition (ADP-Glo Kinase Assay); type: biochemical; settings: RIPK2 5 nM, ATP 150 μM, MBP substrate, read-out: RIPK2 IC50
T1 construct: purchased Carna 09-128
In short: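 Swine MBP substrate; compound and 5 nM RIPK2 first mixed for 30 min at room temperature; buffer pH 7.5 HEPES 50 mM with 10 mM MgCl2, 2 mM DTT, 1 mM EGTA, Brij-35, BSA.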

[1] = tested on: TNF-alpha secretion in human whole blood; experiment: Inhibition of TNF-alpha secretion in human whole blood (IFN-gamma primed, L18-MDP stimulated); type: cell-based; settings: Homo sapiens, 16 h, L18-MDP 100 ng/mL, read-out: Human Whole Blood TNFα IC50
[2] = molecular target: T2, RIPK2 and XIAP protein-protein interaction (Homo sapiens, UniProt O43353); experiment: Inhibition of the interaction of RIPK2 with XIAP (NanoBRET in HEK293T cells); type: cell-based; settings: RIPK2 HaloTag / XIAP NanoLuc, read-out: NanoBRET Scaffolding IC50
T2 construct: the N-terminus of full-length RIPK2 was appended with the HaloTag fusion protein; expressed in transfected cells; host or cells: HEK293T
In short: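 HEK293T cells transiently co-transfected with HaloTag-RIPK2 (N-terminal) and XIAP-NanoLuc (C-terminal) full-length fusions, grown 24 h at 37° C. in Opti-MEM with 4% FBS. Compounds tested as 10-point 3-fold dilutions; NanoBRET ratio taken as 618 nm acceptor over 460 nm donor emission.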

T2 sequence (O43353 whole entry, the tested form may be a part): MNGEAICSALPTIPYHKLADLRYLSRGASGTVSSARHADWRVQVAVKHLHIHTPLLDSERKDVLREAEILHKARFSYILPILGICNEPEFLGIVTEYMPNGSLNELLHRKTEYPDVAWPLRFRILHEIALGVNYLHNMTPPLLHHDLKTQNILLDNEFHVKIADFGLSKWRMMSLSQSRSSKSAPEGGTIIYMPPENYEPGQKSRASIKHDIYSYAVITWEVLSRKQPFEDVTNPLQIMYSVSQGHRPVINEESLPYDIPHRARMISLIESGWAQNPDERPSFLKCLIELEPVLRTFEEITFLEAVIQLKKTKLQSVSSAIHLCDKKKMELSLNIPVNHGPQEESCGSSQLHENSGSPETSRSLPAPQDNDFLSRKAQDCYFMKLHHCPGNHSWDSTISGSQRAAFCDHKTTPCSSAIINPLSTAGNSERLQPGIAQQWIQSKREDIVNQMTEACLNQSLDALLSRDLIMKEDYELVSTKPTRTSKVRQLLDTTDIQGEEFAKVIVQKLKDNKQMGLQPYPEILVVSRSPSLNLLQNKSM
T1 sequence (O43353 1-299 limits assumed): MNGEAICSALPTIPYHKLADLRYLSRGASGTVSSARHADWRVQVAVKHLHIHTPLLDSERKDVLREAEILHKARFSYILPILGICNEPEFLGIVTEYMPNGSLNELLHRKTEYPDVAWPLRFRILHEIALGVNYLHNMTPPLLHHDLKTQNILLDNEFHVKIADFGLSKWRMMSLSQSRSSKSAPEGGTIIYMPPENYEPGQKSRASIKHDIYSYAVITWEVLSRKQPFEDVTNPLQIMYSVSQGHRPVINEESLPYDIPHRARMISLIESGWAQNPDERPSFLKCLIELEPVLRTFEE

Compound | IC50 (RIPK2 enzyme) [nM] | IC50 [1] [nM] | IC50 [2] [nM]
CC(C)(C)n1cc(NC(=O)Cc2ccc(Oc3ccnc4ccc(S(C)(=O)=O)cc34)cc2F)cn1 [Compound 38, N-(1-(tert-butyl)-1H-pyrazol-4-yl)-2-(2-fluoro-4-((6-(methylsulfonyl)quinolin-4-yl)oxy)phenyl)acetamide] | < 2.5 | 5 | 54
Cc1cc(CC(=O)Nc2cnn(C(C)(C)C)c2)ccc1Oc1ccnc2ccc(OC3CCNCC3)cc12 [Compound 83, N-(1-(tert-butyl)-1H-pyrazol-4-yl)-2-(3-methyl-4-((6-(piperidin-4-yloxy)quinolin-4-yl)oxy)phenyl) acetamide] | < 2.5 | 3 | 29
Cc1cc(CC(=O)Nc2cnn(C(C)(C)C)c2)ccc1Oc1ccnc2ccc(S(C)(=O)=O)cc12 [Compound 86, N-(1-(tert-butyl)-1H-pyrazol-4-yl)-2-(3-methyl-4-((6-(methylsulfonyl)quinolin-4-yl)oxy)phenyl)acetamide] | < 2.5 | 9 | 12
Cc1c(Oc2ccnc3ccc(S(C)(=O)=O)cc23)ccc(CC(=O)Nc2cnn(C(C)(C)C)c2)c1F [Compound 91, N-(1-(tert-butyl)-1H-pyrazol-4-yl)-2-(2-fluoro-3-methyl-4-((6-(methylsulfonyl)quinolin-4-yl)oxy)phenyl)acetamide] | < 2.5 | 6 | 12
CCS(=O)(=O)c1ccc2nccc(Oc3ccc(CC(=O)Nc4cnn(C(C)(C)C)c4)cc3C)c2c1 [Compound 99, N-(1-(tert-butyl)-1H-pyrazol-4-yl)-2-(4-((6-(ethylsulfonyl)quinolin-4-yl)oxy)-3-methylphenyl)acetamide] | < 2.5 | 8 | 15
Cc1cc(CC(=O)Nc2cnn(C(C)(C)C)c2)c(F)cc1Oc1ccnc2ccc(S(C)(=O)=O)cc12 [Compound 113, N-(1-(tert-butyl)-1H-pyrazol-4-yl)-2-(2-fluoro-5-methyl-4-((6-(methylsulfonyl)quinolin-4-yl)oxy)phenyl)acetamide] | < 2.5 | 14 | 33
Cc1cc(CC(=O)Nc2cnn(C(C)(C)C)c2)c(F)cc1Oc1ccnc2ccc(C(N)=O)cc12 [Compound 359, 4-(4-(2-((1-(tert-butyl)-1H-pyrazol-4-yl)amino)-2-oxoethyl)-5-fluoro-2-methyl-phenoxy) quinoline-6-carboxamide] | < 2.5 | 4 | 14
CNC(=O)c1ccc2nccc(Oc3cc(F)c(CC(=O)Nc4cnn(C(C)(C)C)c4)cc3C)c2c1 [Compound 360, 4-(4-(2-((1-(tert-butyl)-1H-pyrazol-4-yl)amino)-2-oxoethyl)-5-fluoro-2-methylphenoxy)-N-methylquinoline-6-carboxamide] | < 2.5 | 7 | 8
Cc1cc(CC(=O)Nc2cnn(C(C)(C)C)c2)cc(C)c1Oc1ccnc2cc(F)c(C(N)=O)cc12 [Compound 581, 4-(4-(2-((1-(tert-butyl)-1H-pyrazol-4-yl)amino)-2-oxoethyl)-2,6-dimethylphenoxy)-7-fluoroquinoline-6-carboxamide] | < 2.5 | – | 61.4
